Test results from ChEMBL document CHEMBL1201862, “PubChem BioAssay data set” (2004).
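48-hour exposure; five concentrations; linearly interpolated endpoints. GI50 is the concentration that inhibits growth by half.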 Calls of active or inactive are those of the source. Rule as the data show it: active = GI50 up to about 1.1 µM and inactive = higher.

Key:
Test in all cases: inhibition of tumour cell growth, NCI panel, 48 h
HCT-15 = system: HCT-15
SK-OV-3 = system: SK-OV-3
UACC-257 = system: UACC-257
HL-60 = system: HL-60
HOP-62 = system: HOP-62
786-0 = system: 786-0
OVCAR-8 = system: OVCAR-8
RPMI-8226 = system: RPMI-8226
OVCAR-5 = system: OVCAR-5
DU-145 = system: DU-145
A549 = system: A549
M14 = system: M14
MDA-N = system: MDA-N
SK-MEL-5 = system: SK-MEL-5
ACHN = system: ACHN
EKVX = system: EKVX
NCI-H522 = system: NCI-H522
SK-MEL-28 = system: SK-MEL-28
SW-620 = system: SW-620
SF-539 = system: SF-539
COLO 205 = system: COLO 205
MDA-MB-231 = system: MDA-MB-231
UACC-62 = system: UACC-62
MOLT-4 = system: MOLT-4
Malme-3M = system: Malme-3M
HCT-116 = system: HCT-116
HCC 2998 = system: HCC 2998
HT-29 = system: HT-29
MDA-MB-435 = system: MDA-MB-435
SF-295 = system: SF-295
OVCAR-3 = system: OVCAR-3
SF-268 = system: SF-268
CAKI-1 = system: CAKI-1
SN12C = system: SN12C
BT-549 = system: BT-549
OVCAR-4 = system: OVCAR-4
SNB-75 = system: SNB-75
PC-3 = system: PC-3
MCF7 = system: MCF7
TK-10 = system: TK-10
SK-MEL-2 = system: SK-MEL-2
SNB-19 = system: SNB-19
CCRF-CEM = system: CCRF-CEM
NCI/ADR-RES = system: NCI/ADR-RES
Hs-578T = system: Hs-578T
KM12 = system: KM12
UO-31 = system: UO-31
NCI-H23 = system: NCI-H23
IGROV-1 = system: IGROV-1
K562 = system: K562
HOP-92 = system: HOP-92
NCI-H460 = system: NCI-H460
SR = system: SR
T47D = system: T47D
U-251 = system: U-251
LOX IMVI = system: LOX IMVI
RXF 393 = system: RXF 393
NCI-H226 = system: NCI-H226

Clc1ccc(/C=C/c2nc3ccccc3s2)cc1Cl
GI50 (HCT-15): > 100 µM
GI50 (SK-OV-3): 50.1 µM (inactive)
GI50 (UACC-257): > 100 µM (inactive)
GI50 (HL-60): 82 µM (inactive)
GI50 (HOP-62): 22.9 µM (inactive)
GI50 (786-0): 15 µM (inactive)
GI50 (OVCAR-8): 47.8 µM (inactive)
GI50 (RPMI-8226): 41.7 µM (inactive)
GI50 (OVCAR-5): 80.7 µM (inactive)
GI50 (DU-145): > 100 µM (inactive)
GI50 (A549): 57.8 µM (inactive)
GI50 (M14): 36.5 µM (inactive)
GI50 (MDA-N): 70.5 µM (inactive)
GI50 (SK-MEL-5): 27.2 µM (inactive)
GI50 (ACHN): 29.4 µM (inactive)
GI50 (EKVX): 51.8 µM (inactive)
GI50 (NCI-H522): > 100 µM (inactive)
GI50 (SK-MEL-28): > 100 µM (inactive)
GI50 (SW-620): 1.73 µM (inactive)
GI50 (SF-539): 91.8 µM (inactive)
GI50 (COLO 205): 54.1 µM (inactive)
GI50 (MDA-MB-231): 16.2 µM (inactive)
GI50 (UACC-62): 59.2 µM (inactive)
GI50 (MOLT-4): > 100 µM (inactive)
GI50 (Malme-3M): 48.2 µM (inactive)
GI50 (HCT-116): 19.5 µM (inactive)
GI50 (HCC 2998): 97.3 µM (inactive)
GI50 (HT-29): > 100 µM (inactive)
GI50 (MDA-MB-435): > 100 µM (inactive)
GI50 (SF-295): 28.1 µM (inactive)
GI50 (OVCAR-3): 50.6 µM (inactive)
GI50 (SF-268): 42.8 µM (inactive)
GI50 (CAKI-1): 19.8 µM (inactive)
GI50 (SN12C): > 100 µM (inactive)
GI50 (BT-549): 30.1 µM (inactive)
GI50 (OVCAR-4): 15.6 µM (inactive)
GI50 (SNB-75): 12.8 µM (inactive)
GI50 (PC-3): 1.69 µM (inactive)
GI50 (MCF7): 15.1 µM (inactive)
GI50 (TK-10): 34.4 µM (inactive)
GI50 (SK-MEL-2): > 10 µM (inactive)
GI50 (SNB-19): 30.5 µM (inactive)
GI50 (CCRF-CEM): > 100 µM (inactive)
GI50 (NCI/ADR-RES): 63.2 µM (inactive)
GI50 (Hs-578T): 23.7 µM (inactive)
GI50 (KM12): 81.1 µM (inactive)
GI50 (UO-31): 22.1 µM (inactive)
GI50 (NCI-H23): 94 µM (inactive)
GI50 (IGROV-1): 16.9 µM (inactive)
GI50 (K562): > 100 µM (inactive)
GI50 (HOP-92): 18.9 µM (inactive)
GI50 (NCI-H460): 53.5 µM (inactive)
GI50 (SR): > 100 µM (inactive)
GI50 (T47D): 1.66 µM (inactive)
GI50 (U-251): 25.7 µM (inactive)
GI50 (LOX IMVI): 1.42 µM (inactive)

O=C1C=C(Br)c2c(Br)sc(Br)c21
GI50 (HCT-15): 5.61 µM
GI50 (SK-OV-3): 21.4 µM (inactive)
GI50 (UACC-257): 1.89 µM (inactive)
GI50 (HL-60): 5.36 µM (inactive)
GI50 (HOP-62): 24.9 µM (inactive)
GI50 (786-0): 2.53 µM (inactive)
GI50 (OVCAR-8): 3.9 µM (inactive)
GI50 (RPMI-8226): 2.99 µM (inactive)
GI50 (OVCAR-5): 19.1 µM (inactive)
GI50 (DU-145): 14.9 µM (inactive)
GI50 (A549): 24.5 µM (inactive)
GI50 (M14): 4.54 µM (inactive)
GI50 (MDA-N): 13.9 µM (inactive)
GI50 (SK-MEL-5): 16.3 µM (inactive)
GI50 (ACHN): 4.62 µM (inactive)
GI50 (EKVX): 18 µM (inactive)
GI50 (NCI-H522): 2.07 µM (inactive)
GI50 (SK-MEL-28): 18.9 µM (inactive)
GI50 (SW-620): 3.13 µM (inactive)
GI50 (SF-539): 5.13 µM (inactive)
GI50 (COLO 205): 4.83 µM (inactive)
GI50 (MDA-MB-231): 17.2 µM (inactive)
GI50 (UACC-62): 14 µM (inactive)
GI50 (MOLT-4): 2.77 µM (inactive)
GI50 (Malme-3M): 18.6 µM (inactive)
GI50 (HCT-116): 6.05 µM (inactive)
GI50 (HCC 2998): 13.8 µM (inactive)
GI50 (HT-29): 13.5 µM (inactive)
GI50 (MDA-MB-435): 10 µM (inactive)
GI50 (SF-295): 31.6 µM (inactive)
GI50 (OVCAR-3): 13.4 µM (inactive)
GI50 (SF-268): 18.5 µM (inactive)
GI50 (CAKI-1): 12 µM (inactive)
GI50 (SN12C): 12.9 µM (inactive)
GI50 (BT-549): 6.76 µM (inactive)
GI50 (OVCAR-4): 18 µM (inactive)
GI50 (SNB-75): 18.3 µM (inactive)
GI50 (PC-3): 10.9 µM (inactive)
GI50 (MCF7): 3.85 µM (inactive)
GI50 (TK-10): 6.87 µM (inactive)
GI50 (SK-MEL-2): 20.7 µM (inactive)
GI50 (SNB-19): 17.7 µM (inactive)
GI50 (RXF 393): 8.18 µM (inactive)
GI50 (CCRF-CEM): 1.59 µM (inactive)
GI50 (NCI/ADR-RES): 12.6 µM (inactive)
GI50 (Hs-578T): 30.2 µM (inactive)
GI50 (KM12): 17 µM (inactive)
GI50 (UO-31): 3.4 µM (inactive)
GI50 (NCI-H23): 10.6 µM (inactive)
GI50 (IGROV-1): 5.35 µM (inactive)
GI50 (NCI-H226): 32.5 µM (inactive)
GI50 (K562): 4.67 µM (inactive)
GI50 (HOP-92): 3 µM (inactive)
GI50 (NCI-H460): 19.6 µM (inactive)
GI50 (SR): 2.9 µM (inactive)
GI50 (T47D): 7.13 µM (inactive)
GI50 (U-251): 13.9 µM (inactive)
GI50 (LOX IMVI): 2.37 µM (inactive)
